Measured values reported in BindingDB's records for patent US9862711 (Novartis, 2018).

Molecular target: Phosphatidylinositol 4-kinase beta (Homo sapiens, UniProt Q9UBF8)
Experiment: Kinase Glo Luminescent Kinase Assay
Source text: PI 3-Kinase Alpha (A), Pb 3-Kinase Beta (B), Vps34 (C), PI 4-Kinase Beta (D):The luminescence-based ATP detection reagent KinaseGlo was obtained from Promega, (Cat. No. V6714, Lot No. 236161) through Catalys, Wallisellen, Switzerland. L-alpha-phosphatidylinositol (PI, liver, bovine) was obtained from Avanti Polar Lipid (Cat. No. 840042C, Lot#LPI-274), Phosphatidylinositol-4,5-bisphosphate (PIP(4,5)2) was also obtained from Avanti Polar Lipid (Cat. No. 840046X). L-α-Phosphatidylserine (PS) was obtained from Avanti Polar Lipid (Cat. No. 840032C), n-Octylglucoside from Avanti Polar Lipid (Cat. No. 10634425001). Luminescence is a well established readout to determine ATP concentrations and can thus be used to follow the activity of many kinases regardless of their substrate. The Kinase Glo Luminescent Kinase Assay (Promega, Madison/WI, USA) is a homogeneous HTS method of measuring kinase activity by quantifying the amount of ATP remaining in solution following a kinase reaction.

Phosphatidylinositol 4-kinase beta, sequence (Q9UBF8 whole entry): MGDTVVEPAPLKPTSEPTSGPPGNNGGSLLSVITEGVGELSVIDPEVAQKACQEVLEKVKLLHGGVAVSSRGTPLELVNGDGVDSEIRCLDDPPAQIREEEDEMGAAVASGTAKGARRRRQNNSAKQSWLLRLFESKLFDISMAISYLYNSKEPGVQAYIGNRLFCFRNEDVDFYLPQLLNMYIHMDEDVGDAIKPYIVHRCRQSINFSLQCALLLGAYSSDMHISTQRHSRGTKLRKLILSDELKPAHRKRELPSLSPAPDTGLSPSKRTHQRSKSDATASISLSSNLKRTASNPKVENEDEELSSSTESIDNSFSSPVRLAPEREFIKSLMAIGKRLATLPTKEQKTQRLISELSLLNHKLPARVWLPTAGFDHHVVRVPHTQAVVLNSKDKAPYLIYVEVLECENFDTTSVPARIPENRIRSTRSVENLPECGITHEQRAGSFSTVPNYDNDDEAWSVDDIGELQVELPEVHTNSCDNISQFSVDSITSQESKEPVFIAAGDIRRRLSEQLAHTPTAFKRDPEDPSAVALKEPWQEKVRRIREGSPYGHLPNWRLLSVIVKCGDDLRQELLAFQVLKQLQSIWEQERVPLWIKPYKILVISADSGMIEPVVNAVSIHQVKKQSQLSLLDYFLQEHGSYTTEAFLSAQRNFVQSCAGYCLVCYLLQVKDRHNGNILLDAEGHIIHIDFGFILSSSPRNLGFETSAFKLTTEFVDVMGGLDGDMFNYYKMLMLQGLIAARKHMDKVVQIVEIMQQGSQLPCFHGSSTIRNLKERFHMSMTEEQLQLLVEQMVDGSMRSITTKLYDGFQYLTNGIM

| Compound | IC50 |
| --- | --- |
| Cc1ccc(S(=O)(=O)NC2CC3(CC(O)C3)C2)cc1-c1cncc(-c2cn(C)nc2C)n1 (centres undefined) [US9862711, Example 6] | > 10 µM |
| Cc1ccc(S(=O)(=O)NC[C@H]2C[C@@H](O)C2)cc1-c1cncc(-c2cn(C)nc2C)n1 [US9862711, Example 7] | > 10 µM |
| Cc1ccc(S(=O)(=O)N[C@H]2CC[C@H](O)CC2)cc1-c1cncc(-c2csc(CN3CCOCC3)c2)n1 [US9862711, Example 12] | > 9.1 µM |
| Cc1cc(-c2cncc(-c3cc(S(=O)(=O)NC[C@H]4C[C@@H](O)C4)ccc3C)n2)n(C)n1 [US9862711, Example 13] | > 9.55 µM |
